Laboratory results published in US11174271B2, “6-membered uracil isosteres” (CV6 Therapeutics (NI) Limited, priority 2016, dated 2021).

Target: T1, recombinant human deoxyuridine nucleotidohydrolase (dUTPase) (Homo sapiens, UniProt P33316)
T1 construct: made in house
T1 sequence (P33316 1-164 isoform P33316-2): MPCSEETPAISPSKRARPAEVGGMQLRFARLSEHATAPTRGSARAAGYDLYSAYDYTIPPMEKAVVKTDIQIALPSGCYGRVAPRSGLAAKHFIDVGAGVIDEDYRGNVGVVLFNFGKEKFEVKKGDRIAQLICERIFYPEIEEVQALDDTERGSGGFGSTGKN
Experiment: fluorescence-based dUTPase inhibition assay (DNA polymerase-based dUTP detection)
Type: biochemical
Settings: mean across three concentrations, typically 100, 50 and 25 μmol/L, compared to the in-run positive control
Text: Recombinant human deoxyuridine nucleotidohydrolase (dUTPase) is expressed and purified as described in Ladner R D, Carr S A, Huddleston M J, McNulty D E, Caradonna S J. J Biol Chem. 1996 Mar. 29; 271(13):7752-7. All drugs stocks are aliquoted and diluted as appropriate prior to use. The oligonucelotide primer, templates and fluorophore- and quencher-labeled detection probes are synthesized by Integrated DNA Technologies (Coralville, Iowa), subjected to polyacrylamide gel electrophoresis purification and reconstituted in Omnipur sterile nuclease-free water (EMD Chemicals USA, Gibbstown N.J.) at a stock concentration of 100 μmol/L. The two non-emissive (dark) quenching molecules incorporated into the detection probes include the Iowa black fluorescein quencher (IBFQ; absorption max 531 nm) and ZEN (non-abbreviation; absorption max 532 nm). The fluorescent label utilized is 6-FAM (5′-carboxyfluorescein; excitation max.=494 nm, emission max.=520 nm). Probes are further diluted to a working stock of 10 μmol/L and aliquoted to avoid repeated freeze/thaw cycles. AmpliTaq Gold DNA Polymerase, GeneAmp 10×PCR Buffer 2, MgCl2 and MicroAmp Optical 96-well Reaction Plates are purchased from Applied Biosystems (Carlsbad, Calif.). dNTPs are purchased individually at stock concentrations of 100 mmol/L from New England Biolabs at HPLC-certified >99% purity (Ipswich, Mass.).
Reaction mixtures contained primer, probe and template at an equimolar final concentration of 0.4 μmol/L. Magnesium chloride (MgCl2) is included at a final concentration of 2 mmol/L. Non-limiting dNTPs are included in the reaction mix in excess at a final concentration of 100 μmol/L (dUTP/dTTP is excluded). AmpliTaq Gold DNA polymerase is added at 0.875 U/reaction, 2.5 μl of 10×PCR buffer 2 added and nuclease-free ddH2O added to a final reaction volume of 25 μl. For dUTP inhibition analysis, the volume of ddH2O is further modified to accommodate an additional 1 μl of dUTPase (10 ng/μl) and 1 μl of inhibitor or DMSO control. Thermal profiling and fluorescence detection is performed using a customized thermal program on board a Roche Lightcycler LC480 Instrument II. For analysis of dNTPs, the thermal profile consisted of an 8 min 37° C. step followed by a 10 min 95° C. step to ‘hot-start’ the Taq polymerase and a primer extension time of up to 30 min at 60° C. Raw fluorescence spectra for 6-FAM is measured at specified time intervals to follow assay progression on board a Roche LightCycler 480 Software Version 1.5 and exported and analyzed in Microsoft Excel (Microsoft, Redmond Wash.) and Prism (GraphPad Software, La Jolla Calif.). Fluorescence values for blank reactions (limiting dNTP omitted) are subtracted to give normalized fluorescence units (NFU) to account for background fluorescence.
Test compounds were screened in a fluorescence-based assay. The assay employed a DNA polymerase-based approach utilizing an oligonucleotide template with 3 distinct regions: a 3′ primer binding region, a mid-template dUTP/thymidine triphosphate (TTP) detection region and a 5′ 6-[…] (FAM)-labeled probe binding region that incorporates a black hole quenching moiety. During the reaction, the probe and primer hybridize to the oligonucleotide template to form the template:primer:probe complex. When Taq polymerase binds to the primer in the TPP complex and dUTP is present, successful extension of the nascent strand occurs and the inherent 5′ to 3′ exonuclease activity of Taq polymerase cleaves and displaces the 6-FAM-labeled probe in a 5′ to 3′ direction, releasing the 6-FAM fluorophore from its proximity to the […]. This displacement effectively disrupts the Förster resonance energy transfer (FRET) and the resulting fluorescence detected upon excitation is directly proportional to the amount of the dUTP available in the assay for incorporation. […]

| Structure (SMILES) | % relative inhibition vs. positive control [%] | further results |
| --- | --- | --- |
| CC(C)(NS(=O)(=O)CCCCCC1CCC(=O)NC1=O)c1ccc(F)c(OCC2CC2)c1 (single isomer, unassigned) [Example 81 isomer 1, N-(2-(3-(cyclopropylmethoxy)-4-fluorophenyl)propan-2-yl)-5-(2,6-dioxopiperidin-3-yl)pentane-1-sulfonamide] |  | % relative inhibition vs. positive control (listed as 81 isomer 1): 16% |
| CC(C)(NS(=O)(=O)C/C=C/CC1CCC(=O)NC1=O)c1ccc(F)c(OCC2CC2)c1 (stereo not drawn) [Example 82, (E)-N-(2-(3-(cyclopropylmethoxy)-4-fluorophenyl)propan-2-yl)-4-(2,6-dioxopiperidin-3-yl)but-2-ene-1-sulfonamide] | 26 |  |
| CC(C)(NS(=O)(=O)CC/C=C/CC1CCC(=O)NC1=O)c1ccc(F)c(OCC2CC2)c1 (stereo not drawn) [Example 79, (E)-N-(2-(3-(cyclopropylmethoxy)-4-fluorophenyl)propan-2-yl)-5-(2,6-dioxopiperidin-3-yl)pent-3-ene-1-sulfonamide] | 70 |  |
| CC[C@@H](NS(=O)(=O)CC/C=C/CC1CCC(=O)NC1=O)c1ccc(F)c(OCC2CC2)c1 (single isomer, unassigned) [Example 88 trans isomer 1] |  | % relative inhibition vs. positive control (listed as 88 trans isomer 1): 10% |
| CC[C@@](O)(CNS(=O)(=O)CCCNC1CCC(=O)NC1=O)c1ccc(F)c(OCC2CC2)c1 (stereo partly drawn) [Example 86, N—((S)-2-(3-(cyclopropylmethoxy)-4-fluorophenyl)-2-hydroxybutyl)-3-((2,6-dioxopiperidin-3-yl)amino)propane-1-sulfonamide] | 6 |  |
| CC(C)(NS(=O)(=O)CC/C=C/CC1CCC(=O)NC1=O)c1ccc(F)c(OCC2CC2)c1 (single isomer, unassigned) [Example 79 trans isomer 1, (E)-N-(2-(3-(cyclopropylmethoxy)-4-fluorophenyl)propan-2-yl)-5-(2,6-dioxopiperidin-3-yl)pent-3-ene-1-sulfonamide] |  | % relative inhibition vs. positive control (listed as 79 trans isomer 1): 22% |
| CC(C)(O)COc1cc(C2(NS(=O)(=O)CC/C=C/CN3CCC(=O)NC3=O)CC2)ccc1F [Example 92, (E)-5-(2,4-dioxotetrahydropyrimidin-1(2H)-yl)-N-(1-(4-fluoro-3-(2-hydroxy-2-methylpropoxy)phenyl)cyclopropyl)pent-3-ene-1-sulfonamide] | 81 |  |
| CC[C@@H](NS(=O)(=O)CC/C=C/CC1CCC(=O)NC1=O)c1ccc(F)c(OCC2CC2)c1 (stereo partly drawn) [Example 88, (E)-N—((R)-1-(3-(cyclopropylmethoxy)-4-fluorophenyl)propyl)-5-(2,6-dioxopiperidin-3-yl)pent-3-ene-1-sulfonamide] | 80 |  |
| CC(C)(NS(=O)(=O)CCCCCC1CCC(=O)NC1=O)c1ccc(F)c(OCC2CC2)c1 (single isomer, unassigned) [Example 81 isomer 2, N-(2-(3-(cyclopropylmethoxy)-4-fluorophenyl)propan-2-yl)-5-(2,6-dioxopiperidin-3-yl)pentane-1-sulfonamide] |  | % relative inhibition vs. positive control (listed as 81 isomer 2): 41% |
| CC(C)(NS(=O)(=O)CCCCCC1CCC(=O)NC1=O)c1ccc(F)c(OCC2CC2)c1 (stereo not drawn) [Example 81, N-(2-(3-(cyclopropylmethoxy)-4-fluorophenyl)propan-2-yl)-5-(2,6-dioxopiperidin-3-yl)pentane-1-sulfonamide] | 49 |  |
| CC[C@@H](NS(=O)(=O)CC/C=C/CC1CCC(=O)NC1=O)c1ccc(F)c(OCC2CC2)c1 (single isomer, unassigned) [Example 88 trans isomer 2] |  | % relative inhibition vs. positive control (listed as 88 trans isomer 2): 167% |
| CC(C)(NS(=O)(=O)CC/C=C/CC1CCC(=O)NC1=O)c1cccc(OCC2CC2)c1 (stereo not drawn) [Example 84, (E)-N-(2-(3-(cyclopropylmethoxy)phenyl)propan-2-yl)-5-(2,6-dioxopiperidin-3-yl)pent-3-ene-1-sulfonamide] | 22 |  |
